This is an account of results in article PMC6950567, “Evaluation of Marine Diindolinonepyrane in Vitro and in Vivo: Permeability Characterization in Caco-2 Cells Monolayer and Pharmacokinetic Properties in Beagle Dogs” (Marine Drugs, 2019).

The target of data set [1] is T1, P-gp (Homo sapiens, UniProt P08183).
T1 construct: host or cells: Caco-2
Briefly: P-gp substrate assessment from Caco-2 bidirectional transport. It is filed as in vitro ADME. The note with it: suggested from Caco-2 transport with 0.1% BSA. The method, then:
The Caco-2 cell model was established successfully, and the transwell plate was then rinsed with HBSS solution three times and cultured in an incubator at 37 °C for 30 min to remove the interfering substances on the cell surface. For transfer in the AP→BL direction, 0.075 mL drug solution was added to the AP side as the supply pool, and 0.25 mL HBSS solution was added to the BL side as the receiving pool. In the BL→AP direction, 0.25 mL compound solution was added to the BL side as the supply pool, and 0.075 mL HBSS solution was added to the AP side as the receiving pool. The transwell plate was then cultured in an incubator at 37 °C for 2 h. Samples on the AP side and BL side were collected, respectively. Then, acetonitrile containing an internal label was added to each upper chamber to lyse transport membranes. The total recovery was calculated by collecting the amount of lead compound absorbed on the membrane surface or accumulated in the cell. Finally, the concentration of each sample was calculated as the ratio of the peak area between the compound and the inner target through mass spectrum analysis (API 4000). […] Vr is the volume in the receiving hole (mL); A is the transport membrane area; and C0 is the compound initiation concentration (µM). […]
(In general: Caco-2 cells form a polarised layer with tight junctions and transporters.)

The nature of data set [2]: Tissue distribution after intravenous injection in beagle dogs. The note with it: 7.5 mg/kg. It is filed as in vivo. The method, then: Moreover, another three dogs were fasted for 24 h with water ad libidum for the tissue distribution study. 2,5-BHPA was administered by intravenous injection at 7.5 mg/kg. Subsequently, their brain, stomach (emptied of gastric contents), heart, large intestine (emptied of gastric contents), liver, kidneys, spleen, urine, lungs, spermary, small intestine (emptied of gastric contents), feces, muscle, bile of dogs were removed at 60 min after compound administration. The tissues were flushed with normal saline, dried, weighed, and homogenized in proper methanol (methanol:sample = 5:1, V/V). The tissue samples were centrifuged at 5000× g for 15 min at RT, and the supernatants were filtered with a 0.22 µm disposable syringe filter for HPLC detection.

Details of data set [3]: method as in PMID 24216275. The note with it: rats, cited from earlier work.

“Also recorded” adds a separate entry of the source. Like-named read-outs stand apart in the source and are kept apart here.

T1 sequence (P08183 whole entry): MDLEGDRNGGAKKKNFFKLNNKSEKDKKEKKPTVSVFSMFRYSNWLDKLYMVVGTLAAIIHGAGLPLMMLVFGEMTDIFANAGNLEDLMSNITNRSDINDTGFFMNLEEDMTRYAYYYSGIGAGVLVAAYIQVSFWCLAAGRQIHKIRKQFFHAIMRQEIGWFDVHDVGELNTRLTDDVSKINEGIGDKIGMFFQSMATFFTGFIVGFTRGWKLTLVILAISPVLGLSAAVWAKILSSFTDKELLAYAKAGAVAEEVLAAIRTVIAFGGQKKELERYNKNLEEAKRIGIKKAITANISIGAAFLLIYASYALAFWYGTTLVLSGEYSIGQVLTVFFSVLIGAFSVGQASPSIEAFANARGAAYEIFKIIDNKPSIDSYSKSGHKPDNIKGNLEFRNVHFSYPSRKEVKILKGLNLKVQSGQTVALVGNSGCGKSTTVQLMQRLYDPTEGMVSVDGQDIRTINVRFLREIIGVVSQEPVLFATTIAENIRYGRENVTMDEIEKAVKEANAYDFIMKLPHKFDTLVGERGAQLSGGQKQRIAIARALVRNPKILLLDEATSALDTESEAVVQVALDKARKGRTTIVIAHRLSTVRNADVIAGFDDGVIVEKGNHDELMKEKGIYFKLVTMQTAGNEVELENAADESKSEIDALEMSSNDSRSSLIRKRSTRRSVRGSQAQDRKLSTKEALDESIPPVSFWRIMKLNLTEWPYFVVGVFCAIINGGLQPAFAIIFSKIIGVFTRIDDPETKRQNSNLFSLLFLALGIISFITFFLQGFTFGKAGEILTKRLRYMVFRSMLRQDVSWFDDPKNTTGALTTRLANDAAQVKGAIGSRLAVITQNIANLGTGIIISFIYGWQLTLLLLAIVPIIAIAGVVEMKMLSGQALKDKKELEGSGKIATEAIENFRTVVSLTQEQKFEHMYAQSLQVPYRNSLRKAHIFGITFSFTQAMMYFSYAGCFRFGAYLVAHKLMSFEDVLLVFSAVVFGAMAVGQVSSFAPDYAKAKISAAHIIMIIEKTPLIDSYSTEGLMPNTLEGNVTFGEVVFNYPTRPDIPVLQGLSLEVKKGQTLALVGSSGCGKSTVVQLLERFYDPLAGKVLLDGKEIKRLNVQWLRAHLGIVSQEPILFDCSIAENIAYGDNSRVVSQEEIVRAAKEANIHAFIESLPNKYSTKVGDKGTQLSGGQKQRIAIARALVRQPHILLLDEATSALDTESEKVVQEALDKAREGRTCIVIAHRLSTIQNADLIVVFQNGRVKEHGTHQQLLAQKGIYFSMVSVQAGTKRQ

With `CC(C)=CCCC(C)=CCCC1(C)Oc2c(c(O)cc3c2CN(CCCC(C(=O)O)N2Cc4c(cc(O)c5c4OC(C)(CCC=C(C)CCC=C(C)C)C(O)C5)C2=O)C3=O)CC1O` (stereo not drawn) [2,5-BHPA, 2,5-Bis-[8-(4,8-dimethyl-nona-3,7-dienyl)-5,7-dihydroxy-8-methyl-3-keto-1,2,7,8-tertahydro-6H-pyran[a]isoindol-2-yl]-pentanoic acid], the “substrate of P-gp” value in data set [1] is “not a substrate of P-gp”. Also, in data set [2] (1 h after intravenous injection), the “concentration in different organs” value was “concentration in the liver and bile was higher compared with other organs; also recorded: Lung, kidney, spleen, stomach, excrement, and urine contained moderate amounts; also recorded: highest 2,5-BHPA concentration level was detected in the liver”. Also, in data set [2] (60 min after intravenous injection), the “detection in the brain” value is given as “detected in the brain”. In addition, the half-life in data set [3] (intravenous (IV) bolus) is listed as ~ 22 min. In data set [3], the “detection in the brain” value was “not the case in rats” and the “tissue with the highest concentration level (liver)” value was “same as in rats”.
